Assay results as given in US8901155B2, “Method for treating a TRPV1-mediated disease” (Santen Pharmaceutical Co., Ltd., priority 2007, dated 2014).
One block for each compound: values may come before it.

Columns and labels:
human TRPV1 = target: T1, human TRPV1 (Homo sapiens, UniProt Q8NER1); assay: Intracellular calcium influx in human TRPV1-expressing CHO cells; assay type: cell-based; details: final concentration 1 μM; relative to 1 μM capsaicin
T1 construct: expressed in transfected cells; host or cells: CHO cells
Description: 3. Measurement of Intracellular Calcium Influx by Present Compound in Human TRPV1-Expressing Cells
It is known that TRPV1 is an ion channel receptor and by the activation of TRPV1, intracellular calcium ion influx occurs. According to the method of Phelps et al. (Eur. J. Pharmacol., 513: 57-66, 2005), the action of the present compound of activating human TRPV1 was studied using CHO cells transfected with a gene encoding human TRPV1.
CHO cells were suspended in DMEM and seeded in a culture plate at 3.5×10^4 cells/well. A test compound or a control compound was dissolved in DMSO to prepare a DMSO solution, and times concentrated test compound-containing liquid and control compound-containing liquid each of which was composed of HBSS and contained the thus prepared DMSO solution were prepared.
To the CHO cells, a calcium indicator was added, and the resulting mixture was incubated at 37° C. for 30 minutes, and then further incubated at 22° C. for 30 minutes to achieve equilibration. Subsequently, one-tenth volume of the test compound-containing liquid, control compound-containing liquid (final concentration: 1 μM), or HBSS solution was added thereto, and a change in the fluorescence intensity of the intracellular calcium concentration indicator was measured.
(Calcium influx(%))=((fluorescence intensity in the presence of test compound)−(background fluorescence intensity)/(fluorescence intensity in the presence of control compound)−(background fluorescence intensity))×100

vanilloid receptor = target: T2, vanilloid receptor (Rattus norvegicus, UniProt O35433); assay: Binding activity in rat spinal cord membrane specimen (3H-RTX competition)
T2 construct: Rat spinal cord was homogenized according to a common procedure; from tissue; host or cells: rat spinal cord membrane specimen

[1] = Rat model of indomethacin-induced gastric mucosal injury; assay type: in vivo; details: indomethacin 30 mg/kg s.c., 6 hours
Procedure: 7. Effect in Rat Model of Gastrointestinal Dysfunction
A model of indomethacin-induced gastric mucosal injury is a model of gastrointestinal dysfunction widely used in the evaluation of drug efficacy of a therapeutic agent for ulcer. According to the method of Hoshino et al. (Folia Pharmacologica Japonica, Vol. 97, p. 287, 1991), the effect of the present compound in a rat model of indomethacin-induced gastric mucosal injury was studied.
A test compound-containing liquid was prepared immediately before use by suspending a test compound in a 1% aqueous methyl cellulose solution which is a vehicle. […]
To a rat fasted for 24 hours, the test compound-containing liquid, control compound-containing liquid, or vehicle (pathological control group) was orally administered, and immediately thereafter, indomethacin (Wako Pure Chemical Industries, Ltd.) was subcutaneously administered at a dose of 30 mg/kg. […] The length of the longest diameter of the site of a lesion dyed in blue including an ecchymosis was measured macroscopically using calipers.
A mean value of the sum of the longest diameters of the sites of lesions was obtained for each animal and was defined as an ulcer index. Further, a ratio of inhibition of gastric mucosal injury was calculated from the following equation. […]

TRPV1 = target: T3, TRPV1 (Rattus norvegicus, UniProt O35433); assay: CGRP release in cultured rat dorsal root ganglion-derived neurons; assay type: cell-based
T3 construct: A dorsal root ganglion isolated from the spinal cord of a rat was sectioned and enzymatically treated; endogenous in cells; host or cells: primary cultured rat dorsal root ganglion neurons
Description: 2. Effect of Present Compound on TRPV1 Agonist-Induced CGRP Release System Using Rat Dorsal Root Ganglion-Derived Neurons It is known that TRPV1 is expressed in dorsal root ganglion (DRG), and that by the activation of TRPV1, CGRP which is a neurotransmitter is released from a nerve terminal. According to the method of Ahluwalia et al., (European Journal of Neuroscience, Vol. 17, p. 2611, 2003), the CGRP releasing activity of the present compound in cultured neurons derived from rat DRG was studied. A test compound was weighed and dissolved in DMSO. The resulting solution was diluted with a medium, whereby a test compound-containing liquid was prepared. Each test compound-containing liquid was prepared such that 0.4% DMSO was contained therein as well. […] A dorsal root ganglion isolated from the spinal cord of a rat was sectioned and enzymatically treated with a collagenase/DNase I solution at 37° C. for 1 hour, and then with a trypsin/DNase I solution at 37° C. for 20 minutes. The released neurons were washed and collected, and then seeded in a poly-D-lysine/laminin-coated culture dish and cultured under conditions of 37° C. and 5% CO2 in a neuronal medium (NGF/NCS medium) supplemented with a nerve growth factor for 1 day. The medium was replaced with an NGF/NCS medium containing cytosine arabinoside, and the neurons were further cultured for 2 days. […]

T2 sequence (O35433 whole entry): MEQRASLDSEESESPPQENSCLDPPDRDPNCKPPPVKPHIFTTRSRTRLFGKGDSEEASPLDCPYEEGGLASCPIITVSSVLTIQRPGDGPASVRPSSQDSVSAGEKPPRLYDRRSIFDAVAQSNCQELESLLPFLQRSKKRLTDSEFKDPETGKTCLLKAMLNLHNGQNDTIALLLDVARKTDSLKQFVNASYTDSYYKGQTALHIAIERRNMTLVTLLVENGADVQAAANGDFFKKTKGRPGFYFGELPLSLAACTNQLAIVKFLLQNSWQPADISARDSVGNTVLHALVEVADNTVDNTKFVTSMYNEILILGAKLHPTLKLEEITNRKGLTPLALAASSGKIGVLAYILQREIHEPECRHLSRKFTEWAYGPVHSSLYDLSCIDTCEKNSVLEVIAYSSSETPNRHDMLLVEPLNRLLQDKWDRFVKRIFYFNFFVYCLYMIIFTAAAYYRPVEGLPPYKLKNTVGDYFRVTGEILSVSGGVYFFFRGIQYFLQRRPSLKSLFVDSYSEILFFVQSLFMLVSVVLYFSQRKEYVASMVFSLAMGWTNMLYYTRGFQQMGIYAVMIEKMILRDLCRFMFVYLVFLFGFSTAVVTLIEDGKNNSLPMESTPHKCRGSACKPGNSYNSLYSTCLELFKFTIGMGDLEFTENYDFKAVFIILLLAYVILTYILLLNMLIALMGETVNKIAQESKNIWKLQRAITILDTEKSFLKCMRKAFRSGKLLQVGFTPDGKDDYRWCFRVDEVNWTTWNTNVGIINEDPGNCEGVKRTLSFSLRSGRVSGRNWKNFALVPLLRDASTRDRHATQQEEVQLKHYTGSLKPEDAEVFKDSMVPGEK
T1 sequence (Q8NER1 whole entry): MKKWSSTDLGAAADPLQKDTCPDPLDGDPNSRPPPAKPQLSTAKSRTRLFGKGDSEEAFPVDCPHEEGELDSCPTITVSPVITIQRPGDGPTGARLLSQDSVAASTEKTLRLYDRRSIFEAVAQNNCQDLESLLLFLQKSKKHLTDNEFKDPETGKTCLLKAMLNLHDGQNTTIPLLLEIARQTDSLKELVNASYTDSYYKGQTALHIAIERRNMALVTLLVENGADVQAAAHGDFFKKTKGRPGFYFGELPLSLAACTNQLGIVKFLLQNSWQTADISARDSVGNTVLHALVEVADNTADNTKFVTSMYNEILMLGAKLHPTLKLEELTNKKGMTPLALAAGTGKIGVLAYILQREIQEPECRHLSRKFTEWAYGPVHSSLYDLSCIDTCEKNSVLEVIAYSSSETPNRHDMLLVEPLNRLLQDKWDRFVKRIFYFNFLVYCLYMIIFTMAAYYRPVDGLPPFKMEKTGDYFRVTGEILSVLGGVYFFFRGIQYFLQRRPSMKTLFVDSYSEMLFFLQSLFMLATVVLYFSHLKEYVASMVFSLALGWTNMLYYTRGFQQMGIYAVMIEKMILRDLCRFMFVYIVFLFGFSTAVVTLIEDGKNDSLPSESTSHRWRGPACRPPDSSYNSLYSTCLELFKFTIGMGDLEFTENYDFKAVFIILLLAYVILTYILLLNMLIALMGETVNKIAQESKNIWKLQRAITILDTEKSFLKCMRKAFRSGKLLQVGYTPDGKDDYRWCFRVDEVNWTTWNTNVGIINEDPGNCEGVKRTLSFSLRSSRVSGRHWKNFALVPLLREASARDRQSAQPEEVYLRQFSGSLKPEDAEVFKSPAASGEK
T3 sequence (O35433 whole entry): as the sequence (O35433 whole entry) above

SMILES: CCCCCN(CCC12CC3CC(CC(C3)C1)C2)C(=O)NCC(C)Cc1ccncc1 (single isomer, unassigned; (+)) [Compound 6, (+)-1-[2-(1-adamantyl)ethyl]-3-[2-methyl-3-(4-pyridyl)propyl]-1-pentylurea]
Calcium influx (%) (human TRPV1): 76.6%

SMILES: CCCCCN(CCC12CC3CC(CC(C3)C1)C2)C(=O)NC(C)CCc1ccncc1 (stereo not shown) [Compound 4, 1-[2-(1-adamantyl)ethyl]-3-[1-methyl-3-(4-pyridyl)propyl]-1-pentylurea]
Calcium influx (%) (human TRPV1): 43.9%

SMILES: CCCCCN(CCC12CC3CC(CC(C3)C1)C2)C(=O)NCC(C)Cc1ccncc1 (stereo not shown) [Compound 5, 1-[2-(1-adamantyl)ethyl]-3-[2-methyl-3-(4-pyridyl)propyl]-1-pentylurea]
Calcium influx (%) (human TRPV1): 64.3%

SMILES: CCCCCN(CCC12CC3CC(CC(C3)C1)C2)C(=O)NC/C=C/c1ccncc1 [Compound 7, (E)-1-[2-(1-adamantyl)ethyl]-1-pentyl-3-[3-(4-pyridyl)-2-propenyl]urea]
Calcium influx (%) (human TRPV1): 36.1%

SMILES: COc1ccc2[nH]c([S+]([O-])Cc3ncc(C)c(OC)c3C)nc2c1 (stereo not shown) [Omeprazole, omeprazole, reference compound]
inhibition ratio (%) of gastric mucosal injury ([1]; 10 mg/kg oral): 69.22%

Second part, led by results:

IC50 (vanilloid receptor; 0.2 nM 3H-RTX liquid, 37° C. 60 minutes, mean±SEM of assays performed in triplicate, read-out: IC50 value to the vanilloid receptor in the rat spinal cord neuronal membrane specimen): 191 ± 28 nM
Ki (vanilloid receptor; from IC50, dissociation constant 0.046 nM, mean±SEM, read-out: Ki value to the vanilloid receptor in the rat spinal cord neuronal membrane specimen): 35.8 ± 5.2 nM
Hill coefficient (vanilloid receptor; nonlinear regression of inhibition curve): 1.83±0.449
CGRP release in competitive inhibition assay with capsazepine (TRPV1; 10 μM (final concentration) capsazepine, FIG. 3): antagonized by capsazepine
CGRP release (TRPV1; absence of capsazepine, 10 minutes culture, FIG. 2): released CGRP in a dose-dependent manner
SMILES: CCCCCN(CCC12CC3CC(CC(C3)C1)C2)C(=O)NCCCc1ccncc1 [Compound 1, 1-[2-(1-adamantyl)ethyl]-1-pentyl-3-[3-(4-pyridyl)propyl]urea]
inhibition ratio (%) of gastric mucosal injury ([1]; 1 mg/kg oral): 67.41%

Calcium influx (%) (human TRPV1): 74.1%
SMILES: O=C(NCCCc1ccncc1)N(CCC(F)(F)F)CCC12CC3CC(CC(C3)C1)C2 [Compound 2, 1-[2-(1-adamantyl)ethyl]-3-[3-(4-pyridyl)propyl]-1-(3,3,3-trifluoropropyl)urea]

Calcium influx (%) (human TRPV1): 59.8%
SMILES: CCCN(CCCC12CC3CC(CC(C3)C1)C2)C(=O)NCCCc1ccncc1 [Compound 3, 1-[3-(1-adamantyl)propyl]-1-propyl-3-[3-(4-pyridyl)propyl]urea]
